Patent US8106050B2, “Derivatives of pyrrolo-pyrazines having a kinase inhibitory activity and their biological applications” (Centre National de la Recherche Scientifique (C.N.R.S.), priority 2002, dated 2012)
Like-named read-outs stand apart in the source and are kept apart here.

Experiments:
[1] = target: CDK1/cyclin B; experiment: CDK1/cyclin B kinase assay (histone H1, 15 μM ATP); format: biochemical, starfish (Marthasterias glacialis); conditions: for IC50: 15 μM ATP, Table 1
Protocol: (§1) Blank values were subtracted and activities calculated as pmoles of phosphate incorporated for a 10 min. incubation. […] Controls were performed with appropriate dilutions of dimethylsulfoxide. In a few cases phosphorylation of the substrate was assessed by autoradiography after SDS-PAGE.
CDK1/cyclin B was extracted in homogenisation buffer from M phase starfish (Marthasterias glacialis) oocytes and purified by affinity chromatography on p9^CKShs1-sepharose beads, from which it was eluted by free p9^CKShs1. […] ATP (3,000 Ci/mmol; 1 mCi/ml) in a final volume of 30 μl. After 10 min. incubation at 30° C., 25 μl aliquots of supernatant were spotted onto P81 phosphocellulose papers and treated as described above.
(§2) Kinases were assayed as above described in the presence of increasing concentrations of aloisines.

[2] = target: CDK5/p25 (Homo sapiens, UniProt Q00535); experiment: CDK5/p25 kinase assay (histone H1, 15 μM ATP); format: biochemical, mammalian; conditions: Table 1
CDK5/p25, sequence (Q00535 whole entry, species assumed): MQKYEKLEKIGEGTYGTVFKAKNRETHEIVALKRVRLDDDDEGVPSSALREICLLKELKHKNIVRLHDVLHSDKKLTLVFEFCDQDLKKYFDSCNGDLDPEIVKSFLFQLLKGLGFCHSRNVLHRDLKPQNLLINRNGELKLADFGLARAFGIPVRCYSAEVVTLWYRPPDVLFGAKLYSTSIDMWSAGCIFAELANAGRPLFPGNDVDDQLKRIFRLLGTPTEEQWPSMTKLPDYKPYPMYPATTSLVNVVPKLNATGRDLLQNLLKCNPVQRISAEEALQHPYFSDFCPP
CDK5/p25, sequence (Q15078 99-307 partner limits assumed, species assumed): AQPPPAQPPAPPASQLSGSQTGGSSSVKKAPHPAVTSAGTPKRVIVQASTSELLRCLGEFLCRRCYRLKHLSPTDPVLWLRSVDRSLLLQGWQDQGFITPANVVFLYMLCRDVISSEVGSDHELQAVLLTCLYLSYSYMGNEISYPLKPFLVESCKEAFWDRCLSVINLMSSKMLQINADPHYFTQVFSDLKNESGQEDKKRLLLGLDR
Protocol: as §1
CDK5/p25 was reconstituted by mixing equal amounts of recombinant mammalian CDK5 and p25 expressed in E. coli as GST (Glutathione-S-transferase) fusion proteins and purified by affinity chromatography on glutathione-agarose (p25 is a truncated version of p35, the 35 kDa CDK5 activator). Its activity was assayed in buffer C as described for CDK1/cyclin B.
as §2

[3] = target: GSK-3α/β; experiment: GSK-3 kinase assay (GS-1 peptide, 15 μM ATP); format: biochemical, porcine
Protocol: as §1
GSK-3α/β was either purified from porcine brain or expressed in and purified from insect Sf9 cells. […] ATP (3,000 Ci/mmol; 1 mCi/ml) in a final volume of 30 μl. After 30 min. incubation at 30° C., 25 μl aliquots of supernatant were spotted onto 2.5×3 cm pieces of Whatman P81 phosphocellulose paper, and, 20 sec. later, the filters were washed five times (for at least 5 min. each time) in a solution of 10 ml phosphoric acid/liter of water. The wet filters were counted in the presence of 1 ml ACS (Amersham) scintillation fluid.
as §2

[4] = target: T1, CDK4/cyclin D1 (Homo sapiens, UniProt P11802); experiment: Kinase selectivity panel; format: biochemical; conditions: 15 μM ATP
T1 construct: made in house
T1 sequence (P11802 whole entry, species assumed): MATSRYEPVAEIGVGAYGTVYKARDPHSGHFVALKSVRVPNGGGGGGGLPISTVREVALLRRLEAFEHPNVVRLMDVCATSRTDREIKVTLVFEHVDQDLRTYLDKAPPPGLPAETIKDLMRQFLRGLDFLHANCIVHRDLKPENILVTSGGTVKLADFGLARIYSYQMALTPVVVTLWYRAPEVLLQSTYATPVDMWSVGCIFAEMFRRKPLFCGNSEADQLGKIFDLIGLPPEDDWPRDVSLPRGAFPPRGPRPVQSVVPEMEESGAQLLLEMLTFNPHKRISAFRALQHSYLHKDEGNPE
T1 sequence (P24385 whole entry partner, species assumed): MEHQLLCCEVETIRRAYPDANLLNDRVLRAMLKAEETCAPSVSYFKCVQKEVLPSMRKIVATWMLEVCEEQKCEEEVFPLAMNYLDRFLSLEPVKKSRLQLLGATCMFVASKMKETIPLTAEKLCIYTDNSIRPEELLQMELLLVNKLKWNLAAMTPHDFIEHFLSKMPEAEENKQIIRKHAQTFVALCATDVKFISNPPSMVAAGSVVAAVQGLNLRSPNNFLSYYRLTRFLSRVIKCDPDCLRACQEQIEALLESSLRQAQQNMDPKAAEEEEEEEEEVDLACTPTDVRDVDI

[5] = target: T2, erk1 (Homo sapiens, UniProt P27361); experiment: Kinase selectivity panel; format: biochemical; conditions: 15 μM ATP
T2 construct: made in house
T2 sequence (P27361 whole entry, species assumed): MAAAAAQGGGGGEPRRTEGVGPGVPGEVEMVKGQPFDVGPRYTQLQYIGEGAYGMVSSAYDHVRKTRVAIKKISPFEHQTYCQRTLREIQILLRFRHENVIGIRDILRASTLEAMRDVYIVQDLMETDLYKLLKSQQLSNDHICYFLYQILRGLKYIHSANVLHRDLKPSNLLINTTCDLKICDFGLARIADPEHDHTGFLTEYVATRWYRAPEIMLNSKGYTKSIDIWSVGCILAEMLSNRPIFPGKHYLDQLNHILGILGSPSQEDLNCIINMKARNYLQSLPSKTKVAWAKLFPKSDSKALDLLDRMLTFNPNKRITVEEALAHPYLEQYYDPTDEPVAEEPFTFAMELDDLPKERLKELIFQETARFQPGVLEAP

[6] = target: T3, erk2 (Homo sapiens, UniProt P28482); experiment: Kinase selectivity panel; format: biochemical; conditions: 15 μM ATP
T3 construct: made in house
T3 sequence (P28482 whole entry, species assumed): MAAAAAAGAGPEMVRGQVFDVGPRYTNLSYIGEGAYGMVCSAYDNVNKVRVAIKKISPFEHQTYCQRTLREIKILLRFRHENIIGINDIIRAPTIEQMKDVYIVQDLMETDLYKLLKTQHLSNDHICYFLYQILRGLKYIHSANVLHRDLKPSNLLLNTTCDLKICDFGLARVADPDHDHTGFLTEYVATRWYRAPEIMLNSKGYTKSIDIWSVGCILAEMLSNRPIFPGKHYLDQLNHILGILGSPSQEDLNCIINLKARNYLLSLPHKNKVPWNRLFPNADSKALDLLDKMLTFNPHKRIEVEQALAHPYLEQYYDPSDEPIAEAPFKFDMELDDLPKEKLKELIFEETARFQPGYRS

[7] = target: MAPKK; experiment: Kinase selectivity panel; format: biochemical; conditions: 15 μM ATP
[8] = target: c-Jun N-terminal kinase; experiment: Kinase selectivity panel; format: biochemical; conditions: 15 μM ATP
[9] = target: T4, protein kinase C η (Homo sapiens, UniProt P24723); experiment: Kinase selectivity panel; format: biochemical; conditions: 15 μM ATP
T4 construct: made in house
T4 sequence (P24723 whole entry): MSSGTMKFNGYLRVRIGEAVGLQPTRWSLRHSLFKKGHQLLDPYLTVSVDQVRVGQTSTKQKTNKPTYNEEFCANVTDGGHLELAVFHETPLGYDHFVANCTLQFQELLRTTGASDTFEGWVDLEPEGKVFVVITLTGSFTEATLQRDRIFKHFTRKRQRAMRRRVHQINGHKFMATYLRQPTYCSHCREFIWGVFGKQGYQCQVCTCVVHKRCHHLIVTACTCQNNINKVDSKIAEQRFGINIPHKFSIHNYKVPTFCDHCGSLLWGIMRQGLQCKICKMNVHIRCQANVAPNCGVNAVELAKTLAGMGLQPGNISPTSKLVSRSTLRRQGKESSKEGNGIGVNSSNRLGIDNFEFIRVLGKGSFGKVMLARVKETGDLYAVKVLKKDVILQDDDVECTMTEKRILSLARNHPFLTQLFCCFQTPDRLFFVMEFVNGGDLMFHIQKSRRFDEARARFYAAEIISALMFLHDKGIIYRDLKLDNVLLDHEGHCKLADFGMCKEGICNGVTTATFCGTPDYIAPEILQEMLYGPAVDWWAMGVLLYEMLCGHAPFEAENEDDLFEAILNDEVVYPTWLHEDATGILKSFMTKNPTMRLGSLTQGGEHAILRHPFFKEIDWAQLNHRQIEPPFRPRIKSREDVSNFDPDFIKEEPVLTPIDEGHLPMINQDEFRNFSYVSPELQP

[10] = target: Casein kinase 1; experiment: Kinase selectivity panel; format: biochemical; conditions: 15 μM ATP
[11] = target: Casein kinase 2; experiment: Kinase selectivity panel; format: biochemical; conditions: 15 μM ATP
[12] = test system: NT2 cells; experiment: Cell cycle analysis by flow cytometry; format: cell-based, human
Protocol: (§3) Clonal human NT2 teraterocarcinoma cells were obtained from Stratagene (La Jolla, Calif.) and grown in Dulbecco's Modified Eagle Medium: Nutrient Mixture F-12 with 2 mM L-Glutamine (BIO […]) supplemented with 5% FCS and containing penicillin (20 UI/ml) and streptomycin (20 μg/ml) at 37° C., in a humidified atmosphere containing 5% CO2 in air.
(§4) Exponentially growing cells were incubated for 24 h with aloisine A (stock solution dissolved in dimethylsulfoxide). Nocodazole treatment of cells was performed at a concentration of 0.04 μg nocodazole/ml of medium for 24 h. Following the nocodazole treatment, cells were washed twice with fresh medium and cultured with or without aloisine A for 24 h. To perform serum deprivation, cells were maintained in serum-free medium for 40 h. Following serum deprivation, cells were washed twice and cultured in fresh serum-containing medium with or without aloisine A for 40 h.
Cells were trypsinised, collected by centrifugation and fixed in cold 70% ethanol for at least 4 h. Fixed cells were washed in PBS, incubated with 10 μg RNAse A/ml and stained with 25 μg propidium iodide/ml for 1 h at 37° C. The stained cells were then analysed for cell cycle distribution on a FACSort flow cytometer (Becton Dickinson). Cell cycle analyses were performed multiCYCLE (18).
The effect of aloisine A on the cell cycle distribution was investigated for NT2 cells by flow cytometry. Unsynchronised cells (FIG. 4E) were exposed to 20 μM aloisine A for 40 h (FIG. 4F).
The effects of aloisine A on NT2 cells synchronized either in G0/G1 by serum deprivation or in G2/M by nocodazole treatment was also investigated. The results are given on FIG. 4: the cell cycle phase distribution was analysed by flow cytometry following propidium iodide staining. (A, B, C). NT2 cells were synchronized by serum deprivation for […] (A), then cultured for 40 h in fresh medium without (B) or with 20 μM aloisine A (C). (D, E, F). NT2 cells were synchronized by nocodazole treatment ([…]) for 24 h (D), then cultured for 40 h in fresh medium without (E) or with 20 μM aloisine A (F).

[13] = test system: NT2 cells; experiment: Exponential cell growth of NT2 cells; format: cell-based, human; conditions: figure legend FIGS. 4A to 4E
Protocol: as §3, §4
The formazan products were dissolved in DMSO and quantified by measurement of the absorbance at 562 nm.

[14] = target: Insulin receptor tyrosine kinase (Homo sapiens, UniProt P06213); conditions: read-out: IC50 Insulin receptor tyrosine kinase; 15 μM ATP
Insulin receptor tyrosine kinase, sequence (P06213 28-1382): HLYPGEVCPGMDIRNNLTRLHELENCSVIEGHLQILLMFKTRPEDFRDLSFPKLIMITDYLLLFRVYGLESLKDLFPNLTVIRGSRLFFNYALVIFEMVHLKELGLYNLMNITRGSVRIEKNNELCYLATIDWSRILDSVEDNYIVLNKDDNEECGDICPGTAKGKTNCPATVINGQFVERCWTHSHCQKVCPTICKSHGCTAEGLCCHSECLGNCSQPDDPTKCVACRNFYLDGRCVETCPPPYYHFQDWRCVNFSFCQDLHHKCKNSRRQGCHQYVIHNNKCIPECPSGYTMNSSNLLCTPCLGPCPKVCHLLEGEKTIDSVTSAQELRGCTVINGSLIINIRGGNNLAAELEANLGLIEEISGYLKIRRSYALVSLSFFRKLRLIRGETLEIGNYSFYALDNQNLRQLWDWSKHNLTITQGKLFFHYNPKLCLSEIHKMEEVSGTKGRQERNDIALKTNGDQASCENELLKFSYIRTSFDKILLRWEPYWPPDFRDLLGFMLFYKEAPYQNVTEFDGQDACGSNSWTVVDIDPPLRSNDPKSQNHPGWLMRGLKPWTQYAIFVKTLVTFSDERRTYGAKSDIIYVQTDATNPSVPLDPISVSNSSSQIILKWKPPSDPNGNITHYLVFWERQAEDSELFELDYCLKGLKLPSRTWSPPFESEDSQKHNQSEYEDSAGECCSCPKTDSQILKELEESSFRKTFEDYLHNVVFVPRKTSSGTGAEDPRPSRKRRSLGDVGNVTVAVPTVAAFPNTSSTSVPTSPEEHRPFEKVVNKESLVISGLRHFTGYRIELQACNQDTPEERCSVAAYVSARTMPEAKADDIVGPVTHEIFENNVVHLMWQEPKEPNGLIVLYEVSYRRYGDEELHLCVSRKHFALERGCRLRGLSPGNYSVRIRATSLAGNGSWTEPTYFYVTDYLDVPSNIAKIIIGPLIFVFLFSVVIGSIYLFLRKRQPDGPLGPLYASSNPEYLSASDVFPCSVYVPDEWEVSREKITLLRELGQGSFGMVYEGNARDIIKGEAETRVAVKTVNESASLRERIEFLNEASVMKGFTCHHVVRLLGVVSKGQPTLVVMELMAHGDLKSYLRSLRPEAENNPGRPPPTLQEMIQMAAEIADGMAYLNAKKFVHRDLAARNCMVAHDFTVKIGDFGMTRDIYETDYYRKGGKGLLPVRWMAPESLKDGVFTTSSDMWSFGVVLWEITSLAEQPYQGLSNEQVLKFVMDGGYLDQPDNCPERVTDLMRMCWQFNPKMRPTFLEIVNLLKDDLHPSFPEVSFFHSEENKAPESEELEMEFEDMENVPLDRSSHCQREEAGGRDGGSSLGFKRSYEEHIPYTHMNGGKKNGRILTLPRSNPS

[15] = 15 μM ATP, Table 1, read-out: IC50 GSK-3

Structure (SMILES)	IC50 [1] [µM]	IC50 [2] [µM]	IC50 [3, 15] [µM]	melting point	other results
c1ccc(-c2cc3nccnc3[nH]2)nc1 [4 (RP13), 6-(2-Pyridyl)[5H]pyrrolo[2,3-b]pyrazine]	21	53	15	233.1 °C	
CN(C)c1ccc(-c2cc3nccnc3[nH]2)cc1 [26 (RP129), 6-(4-Dimethylaminophenyl)[5H]pyrrolo[2,3-b]pyrazine]	20	> 100	12	271 °C (dec.)	
CCCCCCCc1c(-c2ccc(OC)cc2)[nH]c2nccnc12 [41 (RP111), 7-n-Heptyl-6-(4-methoxyphenyl)[5H]pyrrolo[2,3-b]pyrazine]	7	> 100	> 10	132.5 °C	
c1coc(-c2cc3nccnc3[nH]2)c1 [1 (RP19), 6-(2-Furyl)[5H]pyrrolo[2,3-b]pyrazine]	12	9.3	15	232.6 °C	
c1ccc(Cc2c(-c3ccccc3)[nH]c3nccnc23)cc1 [44 (RP92), 7-Benzyl-6-phenyl[5H]pyrrolo[2,3-b]pyrazine]	2	> 100	1	209.8 °C	
Clc1cc(Cl)cc(-c2cc3nccnc3[nH]2)c1 [20 (RP15), 6-(3,5-Dichlorophenyl)[5H]pyrrolo[2,3-b]pyrazine]	> 100	> 100	> 100	252 °C (dec.)	
CCCCc1c(-c2ccc(O)cc2)[nH]c2nccnc12 [39 (RP107)]					Mechanism of inhibition versus ATP, CDK1/cyclin B ([1]; ATP 0.1 to […], histone H1 0.7 mg/ml, double reciprocal plots): competitive inhibitor for ATP; IC50 ([3]; text summary of selectivity, read-out: IC50 GSK-3α/β): […]; IC50 [4]: > 100 µM; IC50 [5]: 18 µM; IC50 [6]: 22 µM; IC50 [7]: > 100 µM; IC50 [8]: 3.3 to 10 µM; IC50 [9]: > 100 µM; IC50 [10]: > 100 µM; IC50 [11]: > 100 µM; Cell cycle distribution, unsynchronised cells ([12]; NT2 cells, 20 μM for 40 h): accumulation in G2/M phase; Cell cycle distribution after G2/M synchronisation by nocodazole ([12]; NT2 cells, 20 μM for 40 h after nocodazole withdrawal): remained in G2/M; Cell cycle distribution after G0/G1 synchronisation by serum deprivation ([12]; NT2 cells, serum-enriched medium with 20 μM for 40 h): remained essentially in G0/G1; Signs of apoptosis ([12]; unsynchronised NT2 cells, 20 μM for 40 h): No signs of apoptosis were detectable; Exponential cell growth [13]: reversible inhibition of exponential cell growth; IC50 [14]: 60 µM
c1csc(-c2cc3nccnc3[nH]2)c1 [2 (RP6), 6-(2-Thienyl)[5H]pyrrolo[2,3-b]pyrazine]	7	2	1.2	260.3 °C	

Second part, led by results:

IC50 [1] [µM]	IC50 [2] [µM]	IC50 [3, 15] [µM]	melting point	Structure (SMILES)	other results
2	4	1.1	256.1 °C (dec.)	COc1ccc(-c2cc3nccnc3[nH]2)cc1 [14 (RP11), 6-(4-Methoxyphenyl)[5H]pyrrolo[2,3-b]pyrazine]	
0.2	> 100	5.9	200 °C	CCCCc1c(-c2ccc(Cl)cc2)[nH]c2nccnc12 [40 (RP108), 7-n-Butyl-6-(4-chlorophenyl)[5H]pyrrolo[2,3-b]pyrazine]	
2.5	3	6.5	250 °C (dec.)	Br.Oc1ccccc1-c1cc2nccnc2[nH]1 [11 (RP109), 6-(2-Hydroxyphenyl)[5H]pyrrolo[2,3-b]pyrazine hydrobromide]	
5	4	2.3	216 °C	c1ccc(-c2cc3nccnc3[nH]2)cc1 [5 (RP7), 6-Phenyl[5H]pyrrolo[2,3-b]pyrazine]	
6	> 100	7.2	238 °C (dec.)	FC(F)(F)c1ccc(-c2cc3nccnc3[nH]2)cc1 [22 (RP8), 6-(4-Trifluoromethylphenyl)[5H]pyrrolo[2,3-b]pyrazine]	
2.3	1	0.8	230 °C (dec.)	c1cnc2[nH]c(-c3ccsc3)cc2n1 [3 (RP128)]	
